Patent US20160137630A1, “INDUCTION OF GATA2 BY HDAC1 AND HDAC2 INHIBITORS” (ACETYLON PHARMACEUTICALS, INC., priority 2014, published 2016)
Read-outs that look alike come from different tables or passages of the source.

Key:
[1] = tested on: Gata2 regulatory regions; assay: ChIP-QPCR of histone acetylation at Gata2 regulatory regions; format: cell-based
Excerpt: In chromatin state maps these histone modifications, especially H3K9ac and H3K27ac, have been associated with active regulatory regions, such as enhancers and promoters of actively transcribed genes. The differentiation profile was unaffected by compound treatment and similar to that of cells used in experiments above (FIG. 23B).

[2] = pharmacokinetics of Compound 001 in cynomolgus monkeys; format: in vivo; settings: cynomolgus monkey, plasma, read-out: minimum drug exposure for the entire dosing period
Description: (§1) B. Cynomolgus monkey were dosed once daily by oral gavage for 5 consecutive days at 0 mg/kg, 25 mg/kg, or 75 mg/kg per dose (FIG. 25B). Sampling as described in ‘A’.
C. […] Points are the average of replicate animals, error bars are the standard deviation of replicate animals (FIG. 25C).

[3] = tested on: HbG mRNA; assay: HbG mRNA levels in peripheral blood of monkeys; format: in vivo, cynomolgus monkey; settings: monkey, 25 and 75 mg/kg; FIG. 27C-D
Description: as §1
For each individual monkey, HbG mRNA was expressed relative to HbB mRNA and then normalized to their predose level (time=day 0). Points are the median of n=3 animals with error bars showing the range.

[4] = pharmacokinetics of Compound 001 in rats; format: in vivo; settings: rat, plasma, read-out: minimum drug exposure for the entire dosing period
Description: I. A. Rats were dosed once daily by oral gavage for 6 consecutive days at 0 mg/kg, 10 mg/kg, or 30 mg/kg per dose (See FIG. 25A). Dosing days are indicated by a down arrow (FIG. 25A). Peripheral blood was drawn on the indicated days and analyzed for drug level in plasma (PK), complete blood counts (CBC), or isolation of total ribonucleic acid (RNA). C. […] Points are the average of replicate animals, error bars are the standard deviation of replicate animals (FIG. 25C).

[5] = tested on: HbE mRNA; assay: HbE mRNA levels in peripheral blood of rats; format: in vivo; settings: rat, 10 and 30 mg/kg; FIG. 27A-B
Description: (§2) I. A. Rats were dosed once daily by oral gavage for 6 consecutive days at 0 mg/kg, 10 mg/kg, or 30 mg/kg per dose (See FIG. 25A). Dosing days are indicated by a down arrow (FIG. 25A). Peripheral blood was drawn on the indicated days and analyzed for drug level in plasma (PK), complete blood counts (CBC), or isolation of total ribonucleic acid (RNA). […] For each individual rat, HbE mRNA was expressed relative to HbB mRNA and then normalized to their predose level (time=day 0). Points are the average of n=4 animals with error bars showing the standard deviation (FIG. 27A).

[6] = molecular target: HDAC3 (Homo sapiens, UniProt O15379); assay: in vitro biochemical HDAC inhibition assay
[7] = tested on: BFU-E colonies derived from human bone marrow mononuclear cells; assay: % HbG mRNA in BFU-E colonies; format: cell-based; settings: FIG. 18A
Excerpt: Increases in % HbG resulting from HDAC1/2 inhibition were due to increased HbG and decreased HbB (FIGS. 18B, 21D and 21E).

[8] = tested on: HbD promoter; assay: Gata2 binding at the β-like globin gene cluster (ChIP-seq, ChIP-QPCR); format: cell-based
Excerpt: The tight temporal correlation between Gata2 and HbG activation following HDAC1/2 inhibition argues that Gata2 may affect the beta-globin locus directly. […] In FIG. 8C, the ChIP-seq results in FIG. 8A were validated in a second experimental series using QRT-PCR and two primer sets directed to the delta globin promoter. A primer set at the beta globin promoter was used as a control. […] This region is suspected in playing a role in switching from fetal to adult globin during development, as naturally occurring deletions of this region are associated with elevated fetal hemoglobin in adults (Sankaran V G, Xu J, Byron R, et al. A functional element necessary for fetal hemoglobin silencing. The New England journal of medicine. 2011; 365(9):807-814.).
To investigate this possibility, the β-like globin gene cluster was looked at in the Gata2 ChIP-seq data described above.

[9] = molecular target: HDAC2 (Homo sapiens, UniProt Q92769)
[10] = tested on: human bone marrow mononuclear cells; assay: colony formation assays; settings: 1 μM
[11] = blood cell counts in rats; format: in vivo; settings: rat
Description: as §2, with “white blood cell counts were” for “HbE mRNA was”, “relative” for “relative to HbB mRNA and then normalized”, “deviation.” for “deviation (FIG. 27A).”

[12] = tested on: Gata2; assay: Gata2 shRNA knockdown with Compound 001 treatment; format: cell-based, human
Description: In FIG. 13A-D, expanded hematopoietic progenitors were infected with lentivirus carrying short hairpin RNAs (shRNA) directed against the Gata2 gene (shG2-1, shG2-2) or a non-targeting control shRNA (shCtrl). Transduced cells were selected by puromycin treatment. […] RNA was isolated at the indicated time points and the level of Gata2 mRNA was determined by quantitative real time PCR (QRT-PCR). In FIG. 7A, K562 cells were infected with lentivirus as described above. […] RNA was isolated at indicated time point and the level of Gata2 mRNA was determined by quantitative real time PCR (QRT-PCR). In FIG. 7B, protein levels at Day 3 were determined by Western blot using antibodies against Gata2 and beta-actin as a loading control. […] Data was first normalized to beta-actin control and then expressed relative to vehicle treated cells.
Since Gata2 levels decline during erythroid differentiation (FIGS. 1B and 1C), knockdown experiments were performed entirely in CS1 expansion media, which supports hematopoietic progenitors, and maintained Gata2 mRNA at a constant level in shCtrl cells following infection (FIG. 13B). Gata2 mRNA was reduced by 85% or 50% in shG2-1 or shG2-2 cells, respectively, while Gata2 protein was reduced by 50% by each hairpin, relative to shCtrl cells (FIG. 13B and FIG. 13D).

Sequence of HDAC3 (O15379 whole entry): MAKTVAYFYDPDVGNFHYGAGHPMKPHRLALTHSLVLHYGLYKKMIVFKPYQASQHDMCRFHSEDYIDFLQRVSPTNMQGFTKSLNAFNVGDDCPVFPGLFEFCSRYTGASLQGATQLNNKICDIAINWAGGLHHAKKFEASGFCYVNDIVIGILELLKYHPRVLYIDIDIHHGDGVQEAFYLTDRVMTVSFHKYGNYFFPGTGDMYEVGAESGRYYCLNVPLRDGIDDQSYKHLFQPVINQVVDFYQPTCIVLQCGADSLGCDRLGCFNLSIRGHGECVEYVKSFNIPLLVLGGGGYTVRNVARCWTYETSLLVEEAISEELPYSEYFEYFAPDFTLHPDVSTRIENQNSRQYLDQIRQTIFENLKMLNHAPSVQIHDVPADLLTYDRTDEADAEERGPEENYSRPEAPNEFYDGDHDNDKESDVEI
Sequence of HDAC3 (Q9Y618 395-489 partner limits assumed): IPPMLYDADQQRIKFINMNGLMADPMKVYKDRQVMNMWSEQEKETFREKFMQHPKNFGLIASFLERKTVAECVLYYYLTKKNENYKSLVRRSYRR
Sequence of HDAC2 (Q92769 whole entry): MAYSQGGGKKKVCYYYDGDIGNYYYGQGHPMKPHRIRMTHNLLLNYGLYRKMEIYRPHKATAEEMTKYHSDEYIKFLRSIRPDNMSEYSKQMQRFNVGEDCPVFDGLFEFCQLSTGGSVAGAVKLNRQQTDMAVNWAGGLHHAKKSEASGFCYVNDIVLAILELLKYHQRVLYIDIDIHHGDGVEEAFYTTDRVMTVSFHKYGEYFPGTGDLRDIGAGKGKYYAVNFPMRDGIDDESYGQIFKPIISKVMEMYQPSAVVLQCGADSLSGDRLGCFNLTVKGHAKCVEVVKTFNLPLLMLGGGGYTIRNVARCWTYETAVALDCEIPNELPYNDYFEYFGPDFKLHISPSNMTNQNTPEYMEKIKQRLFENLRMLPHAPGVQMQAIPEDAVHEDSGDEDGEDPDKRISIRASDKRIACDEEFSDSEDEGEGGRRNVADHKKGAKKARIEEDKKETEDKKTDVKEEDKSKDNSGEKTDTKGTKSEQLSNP

Compound: Nc1ccc(-c2cccs2)cc1NC(=O)c1ccc2nc(N3CCNCC3)ccc2c1 [Compound 001, N-(2-amino-5-(thiophen-2-yl)phenyl)-2-(piperazin-1-yl)quinoline-6-carboxamide]
- increase in histone H3K9, H2BK5, and H3K27 acetylation ([1]; +9.5 kb and −3.9 kb regions): 3 fold
- increase in histone H3K9, H2BK5, and H3K27 acetylation ([1]; −1.8 kb and −2.8 kb regulatory regions): 6 fold
- concentration at 5 days ([2]; high dose (75 mg/kg once daily oral gavage, 5 days)): ≥ 5000 nM
- concentration at 5 days ([2]; low dose (25 mg/kg once daily oral gavage, 5 days)): ≥ 1000 nM
- HbG mRNA relative to HbB mRNA, normalized to predose [3]: dose-dependent increase
- concentration at 6 days ([4]; high dose (30 mg/kg once daily oral gavage, 6 days)): ≥ 5000 nM
- concentration at 6 days ([4]; low dose (10 mg/kg once daily oral gavage, 6 days)): ≥ 1000 nM
- HbE mRNA relative to HbB mRNA, normalized to predose [5]: dose-dependent increase
- selectivity over HDAC3 [6]: approximately 100 fold
- IC50 ([6]; Table 2, read-out: IC50 HDAC3): 114 nM
- IC50 ([6]; pre-incubation time of 24 hours, FIG. 9A, 17B, read-out: IC50 against HDAC3): 1300 nM
- % HbG [7]: increased % HbG in a dose-dependent manner
- increase in Gata2 binding at the HbD promoter region ([8]; ChIP-seq): 1.8 fold
- increase in Gata2 binding at the HbD promoter ([8]; independent ChIP-QPCR experiment): 2 fold
- IC50 [9]: 42 nM
- number of CFU-E colonies [10]: no effect
- number of CFU-GM colonies [10]: no effect
- number of CFU-MK colonies [10]: significantly suppressed
- size and number of BFU-E colonies [10]: no effect
- RBC or platelets [11]: no detected affect
- time of peak white blood cell suppression after the last dose [11]: 1 days
- time to recovery of white blood cell counts to baseline after the last dose [11]: 5 days
- white blood cells ([11]; 10 or 30 mg/kg for 6 days): reversible suppression
- Gata2 mRNA induction ([12]; 1 uM, cells expressing shCtrl): 1.4 fold
- Gata2 protein induction ([12]; 1 uM, cells expressing shCtrl): 5 fold
- reduction of magnitude of HbG mRNA induction relative to shCtrl cells ([12]; shG2-1 and shG2-2 cells): 25%
